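Five compound concentrations were applied to cells in 96-well plates for 48 hours; endpoints were derived by simple linear interpolation of the resulting dose-response curve. GI50 = concentration required for 50% inhibition of growth.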 Active and inactive are the calls of the source. Cut-off read from the data, not from the text of the source: active = GI50 up to about 1.1 µM and inactive = higher.
How the values were obtained:
Experiment in all cases: inhibition of tumour cell growth, NCI panel, 48 h
PC-3 = tested on: PC-3
SNB-75 = tested on: SNB-75
UACC-62 = tested on: UACC-62
SNB-19 = tested on: SNB-19
SF-539 = tested on: SF-539
OVCAR-4 = tested on: OVCAR-4
UO-31 = tested on: UO-31
CCRF-CEM = tested on: CCRF-CEM
IGROV-1 = tested on: IGROV-1
CAKI-1 = tested on: CAKI-1
UACC-257 = tested on: UACC-257
MOLT-4 = tested on: MOLT-4
MCF7 = tested on: MCF7
HT-29 = tested on: HT-29
HCT-116 = tested on: HCT-116
786-0 = tested on: 786-0
COLO 205 = tested on: COLO 205
NCI/ADR-RES = tested on: NCI/ADR-RES
HOP-92 = tested on: HOP-92
HCC 2998 = tested on: HCC 2998

Measured: GI50

COc1ccc(NS(=O)(=O)c2ccc(NC(NC(=O)CC(C)C)(C(F)(F)F)C(F)(F)F)cc2)nn1
inactive: PC-3 > 100 µM | SNB-75 > 100 µM | UACC-62 > 100 µM | SNB-19 > 100 µM | SF-539 > 100 µM | OVCAR-4 > 100 µM | UO-31 > 100 µM | CCRF-CEM > 100 µM | IGROV-1 > 100 µM | CAKI-1 > 100 µM | UACC-257 > 100 µM | MOLT-4 > 100 µM | MCF7 > 100 µM | HT-29 > 100 µM | HCT-116 > 100 µM | 786-0 > 100 µM | COLO 205 > 100 µM | NCI/ADR-RES > 100 µM | HOP-92 > 100 µM | HCC 2998 > 100 µM

Cc1ccc(Cc2n[nH]c(=O)n2N2C(=O)c3ccccc3C2=O)cc1
inactive: PC-3 > 100 µM | SNB-75 91.4 µM | UACC-62 > 100 µM | SNB-19 > 100 µM | SF-539 > 100 µM | OVCAR-4 > 100 µM | UO-31 > 100 µM | CCRF-CEM > 100 µM | IGROV-1 > 100 µM | CAKI-1 > 100 µM | UACC-257 > 100 µM | MOLT-4 > 100 µM | MCF7 > 100 µM | HT-29 > 100 µM | HCT-116 > 100 µM | 786-0 > 100 µM | COLO 205 > 100 µM | NCI/ADR-RES > 100 µM | HOP-92 > 100 µM | HCC 2998 > 100 µM

C=CCc1oc(C)nc1CCCC
inactive: PC-3 > 100 µM | SNB-75 > 100 µM | UACC-62 > 100 µM | SNB-19 49.3 µM | SF-539 > 100 µM | OVCAR-4 > 100 µM | UO-31 > 100 µM | CCRF-CEM > 100 µM | IGROV-1 > 100 µM | CAKI-1 > 100 µM | UACC-257 > 100 µM | MOLT-4 > 100 µM | MCF7 > 100 µM | HT-29 > 100 µM | HCT-116 > 100 µM | 786-0 > 100 µM | COLO 205 > 100 µM | NCI/ADR-RES > 100 µM | HOP-92 > 100 µM | HCC 2998 > 100 µM

CCOC(=O)CCC(NC(=O)c1ccc(Nc2nc3ccccc3nc2C(=O)OCC)s1)C(=O)OCC (stereo not drawn)
inactive: PC-3 > 100 µM | SNB-75 > 100 µM | UACC-62 59.2 µM | SNB-19 95.1 µM | SF-539 63.4 µM | OVCAR-4 37.2 µM | UO-31 > 100 µM | IGROV-1 > 100 µM | CAKI-1 81.3 µM | UACC-257 > 100 µM | MOLT-4 > 100 µM | MCF7 > 100 µM | HT-29 > 100 µM | HCT-116 > 100 µM | 786-0 21.7 µM | COLO 205 > 100 µM | NCI/ADR-RES 19.9 µM | HOP-92 > 100 µM | HCC 2998 > 100 µM

CN(C)c1ccc(-c2c(C#N)c(-c3ccccc3)n(NS(=O)(=O)c3ccccc3)c(=O)c2C#N)cc1
inactive: PC-3 26.9 µM | SNB-75 48.5 µM | UACC-62 43.3 µM | SNB-19 24.8 µM | SF-539 33.3 µM | OVCAR-4 > 100 µM | CCRF-CEM 26.5 µM | IGROV-1 40.8 µM | CAKI-1 45.7 µM | UACC-257 > 100 µM | MOLT-4 20.7 µM | MCF7 40.7 µM | HT-29 76.7 µM | HCT-116 34.1 µM | 786-0 69.5 µM | COLO 205 > 100 µM | NCI/ADR-RES 57.3 µM | HOP-92 28.9 µM | HCC 2998 30.1 µM

C/C(CC(O)(C(F)(F)F)C(F)(F)F)=N\O
inactive: PC-3 > 10 µM | SNB-75 > 10 µM | UACC-62 > 10 µM | SNB-19 > 10 µM | SF-539 > 10 µM | OVCAR-4 > 10 µM | CCRF-CEM > 10 µM | IGROV-1 > 10 µM | CAKI-1 > 10 µM | UACC-257 > 10 µM | MOLT-4 > 10 µM | MCF7 > 10 µM | HT-29 > 10 µM | HCT-116 > 10 µM | 786-0 > 10 µM | COLO 205 > 10 µM | NCI/ADR-RES > 10 µM | HOP-92 > 10 µM | HCC 2998 > 10 µM

Cc1c[nH]c(C(=O)O)c1-c1ccc2c(-c3ccccc3)nc3ccccc3n12
inactive: PC-3 27.4 µM | SNB-75 17.5 µM | UACC-62 20.7 µM | SF-539 19.5 µM | OVCAR-4 41 µM | UO-31 34.4 µM | CCRF-CEM 36.3 µM | IGROV-1 22.9 µM | CAKI-1 34.7 µM | UACC-257 30.8 µM | MOLT-4 34.2 µM | MCF7 34 µM | HT-29 22.8 µM | HCT-116 34.8 µM | 786-0 33.3 µM | COLO 205 39.4 µM | NCI/ADR-RES 17.2 µM | HOP-92 32.9 µM | HCC 2998 13.7 µM

c1cc(-c2ccc(-c3ccc(C4=NCCCN4)cc3)o2)ccc1C1=NCCCN1
inactive: PC-3 79.1 µM | SNB-75 43 µM | UACC-62 19 µM | SNB-19 52.6 µM | SF-539 87.5 µM | OVCAR-4 > 100 µM | UO-31 > 100 µM | CCRF-CEM > 100 µM | CAKI-1 74.1 µM | UACC-257 38.8 µM | MOLT-4 > 100 µM | MCF7 88.7 µM | HT-29 76.4 µM | HCT-116 39.6 µM | 786-0 61.5 µM | COLO 205 68.9 µM | NCI/ADR-RES 76.7 µM | HOP-92 32 µM | HCC 2998 92.9 µM

Cc1nc2c(O)cccc2c(=O)[nH]1
inactive: PC-3 451 µM | SNB-75 233 µM | UACC-62 232 µM | SNB-19 670 µM | SF-539 355 µM | OVCAR-4 399 µM | UO-31 282 µM | CCRF-CEM 305 µM | IGROV-1 405 µM | CAKI-1 256 µM | UACC-257 555 µM | MOLT-4 339 µM | MCF7 621 µM | HT-29 345 µM | HCT-116 341 µM | 786-0 > 1000 µM | NCI/ADR-RES 548 µM | HOP-92 845 µM | HCC 2998 418 µM

O=C(N/N=C(COc1cccc(Cl)c1)\N=C\c1cccnc1)c1ccncc1
inactive: PC-3 > 100 µM | SNB-75 18.5 µM | UACC-62 > 100 µM | SNB-19 > 100 µM | SF-539 > 100 µM | OVCAR-4 84.7 µM | CCRF-CEM > 100 µM | IGROV-1 > 100 µM | CAKI-1 73.5 µM | UACC-257 90.4 µM | MOLT-4 > 100 µM | MCF7 > 100 µM | HT-29 > 100 µM | HCT-116 > 100 µM | 786-0 > 100 µM | COLO 205 95.9 µM | NCI/ADR-RES > 100 µM | HOP-92 24.9 µM | HCC 2998 > 100 µM
